Results: ChEMBL document CHEMBL5055633, “Amphipathic Barbiturates as Mimics of Antimicrobial Peptides and the Marine Natural Products Eusynstyelamides with Activity against Multi-resistant Clinical Isolates” (J Med Chem, 2021)
Values after ≈ are worked out from the molar mass of the structure shown.

What was measured:
Type in all cases: functional
[1] = test system: Escherichia coli; assay: Antimicrobial activity against Escherichia coli ATCC 25922 assessed as reduction in bacterial growth incubated for 48 hrs by microdilution susceptibility test
[2] = test system: Staphylococcus aureus; assay: Antimicrobial activity against Staphylococcus aureus ATCC 9144 assessed as reduction in bacterial growth incubated for 48 hrs by microdilution susceptibility test
[3] = test system: Corynebacterium glutamicum; assay: Antimicrobial activity against Corynebacterium glutamicum ATCC 13032 assessed as reduction in bacterial growth incubated for 48 hrs by microdilution susceptibility test

MIC [1]: 20 µg/mL (≈ 43.4 µM)
MIC [2]: 0.65 µg/mL (≈ 1.41 µM)
MIC [3]: 2.5 µg/mL (≈ 5.43 µM)
SMILES: CN(C)[C@@H]1C(O)=C(C(N)=O)C(=O)[C@@]2(O)C(O)=C3C(=O)c4c(O)cccc4[C@@](C)(O)[C@H]3[C@H](O)[C@@H]12 [OXYTETRACYCLINE]
